Measurements from patent US20080161268A1, “[…] AMMONIUM SALT ANTIBACTERIAL AND WATER-BORNE COATING MATERIAL HAVING […] CONTAINING THE SAME” (COMPAL ELECTRONICS, INC., priority 2006, published 2008).

Assays:
[1] = tested on: Bacteria; assay: Antibiotic experiment according to Japanese Standards Testing Method (JISZ 2801-2000); type: cell-based; settings: for Antimicrobial Activity Value: versus control group (neat cement paint)
Protocol: After formulating the organic quaternary ammonium salt having the siloxane structure to have a concentration of 5% and adjusting the pH value to be 7, an antibiotic experiment was performed according to Japanese Standards Testing Method (JISZ 2801-2000).

[2] = Potential measurement (surface potential, Zetasizer Nano ZS); type: physicochemical; settings: concentration about 5%, pH 0-7, FIG. 1
Protocol: The methanol solution including 45% of the organic quaternary ammonium salt A having the siloxane structure and the methanol solution including 45% of the organic quaternary ammonium salt Bhaving no siloxane structure were respectively adjusted to a pH value of 0-7 by 0.1 N HCl and 0.1 N NaOH, and formulated to have a concentration of about 5%. The surface potentials were measured with Zetasizer, Nano ZS (Malvern, United Kingdom).

[3] = Test of the stability of antibacterial in latex paint; type: physicochemical; settings: pH about 7
Protocol: Four quaternary ammonium salt antibacterials A, B, C, and D shown in table 1 were prepared respectively, in which A was a quaternary ammonium salt antibacterial having the siloxane structure, and the other three antibacterials B, C, and D were quaternary ammonium salt antibacterials having no siloxane structure. Then, the four antibacterials A, B, C, and D were respectively added into a latex paint, and formulated to have a concentrations of 500, 1500, 2500, and 5000 ppm, and the pH value was adjusted to about 7. Changes of the antibacterials in the latex paint were observed.

## CCCCCCCCCCCCCCCCCC[N+](C)(C)[Si](OC)(OC)OC.[Br-] [Antibacterial A]
[1]; 0 h
  Bacteriostatic Ratio: less than 90%
  Antimicrobial Activity Value: 0.47
[1]; 0 h, concentration 5%, pH 7
  Bacteria count at 0 h * 3 sheets: 3.73 × 10^5
[1]; 3 h
  Bacteriostatic Ratio: 99%
  Antimicrobial Activity Value: 2.95
[1]; 3 h, concentration 5%, pH 7
  Bacteria count at 3 h * 3 sheets: 1.48 × 10^3
[1]; 24 h
  Bacteriostatic Ratio: 99.99%
  Antimicrobial Activity Value: 4.89
[1]; 24 h, concentration 5%, pH 7
  Bacteria count at 24 h * 3 sheets: <10
[1]; concentration 5%, pH 7, time not given
  Bacteriostatic Ratio: greater than 99.99%
[2]
  Electronegativity (surface potential) versus pH value: increased with the increment of pH value
[3]; 500-5000 ppm
  Miscibility in the latex paint: good miscibility
[3]; content of antibacterial 500 ppm
  Changes of the antibacterial in the latex paint: miscible
[3]; content of antibacterial 1500 ppm
  Changes of the antibacterial in the latex paint: miscible
[3]; content of antibacterial 2500 ppm
  Changes of the antibacterial in the latex paint: miscible
[3]; content of antibacterial 5000 ppm
  Changes of the antibacterial in the latex paint: miscible
